Laboratory results: PubChem BioAssay AID1963870 (Molecular Pharmacology Branch, DTP, NCI, 2024)

Tested on: 292921-168-R-J2-PDC KRAS tumor spheroid viability
Assay: Anticancer human tumor 292921-168-R-J2-PDC patient-derived pancreatic carcinoma cell line growth inhibition [KRAS2]
Settings: spheroids with HUVEC and MSC; for viability, T/C: stronger effect = lower value; active = viability on the fitted dose curve at most 10% of control; inactive = the rest
In short: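 KRAS-mutant tumor cells were grown as spheroids with HUVEC endothelial cells and human MSCs as stroma. Targeted agents were tested alone and with KRAS pathway inhibitors. Doses started at or near clinical Cmax, or 10 microM, descending half-log.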

[1] = curve of first compound, second compound 0.1 µM
[2] = curve of first compound, second compound 0.316 µM
[3] = curve of first compound, second compound 1 µM
[4] = curve of first compound, second compound 3.16 µM
[5] = curve of first compound, second compound 10 µM
[6] = second compound 0.1 µM, first compound 0.01 µM
[7] = second compound 0.1 µM, first compound 0.0316 µM
[8] = second compound 0.1 µM, first compound 0.1 µM
[9] = second compound 0.1 µM, first compound 0.316 µM
[10] = second compound 0.1 µM, first compound 1 µM
[11] = second compound 0.1 µM, first compound 3.16 µM
[12] = second compound 0.316 µM, first compound 0.01 µM
[13] = second compound 0.316 µM, first compound 0.0316 µM
[14] = second compound 0.316 µM, first compound 0.1 µM
[15] = second compound 0.316 µM, first compound 0.316 µM
[16] = second compound 0.316 µM, first compound 1 µM
[17] = second compound 0.316 µM, first compound 3.16 µM
[18] = second compound 1 µM, first compound 0.01 µM
[19] = second compound 1 µM, first compound 0.0316 µM
[20] = second compound 1 µM, first compound 0.1 µM
[21] = second compound 1 µM, first compound 0.316 µM
[22] = second compound 1 µM, first compound 1 µM
[23] = second compound 1 µM, first compound 3.16 µM
[24] = second compound 3.16 µM, first compound 0.01 µM
[25] = second compound 3.16 µM, first compound 0.0316 µM
[26] = second compound 3.16 µM, first compound 0.1 µM
[27] = second compound 3.16 µM, first compound 0.316 µM
[28] = second compound 3.16 µM, first compound 1 µM
[29] = second compound 3.16 µM, first compound 3.16 µM
[30] = second compound 10 µM, first compound 0.01 µM
[31] = second compound 10 µM, first compound 0.0316 µM
[32] = second compound 10 µM, first compound 0.1 µM
[33] = second compound 10 µM, first compound 0.316 µM
[34] = second compound 10 µM, first compound 1 µM
[35] = second compound 10 µM, first compound 3.16 µM
[36] = second compound 0.1 µM, first compound 10 µM
[37] = second compound 0.316 µM, first compound 10 µM
[38] = second compound 1 µM, first compound 10 µM
[39] = second compound 3.16 µM, first compound 10 µM
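Also: drug exposure lasted seven days after spheroids formed for three days.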
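For viability, T/C in this document: percent of DMSO vehicle control viability which is 100%.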

CC(=O)OC12COC1CC(O)C1(C)C(=O)C(O)C3=C(C)C(OC(=O)C(O)C(NC(=O)OC(C)(C)C)c4ccccc4)CC(O)(C(OC(=O)c4ccccc4)C21)C3(C)C (stereo not drawn) + CC1OCC2(CCN(c3cnc(Sc4ccnc(N)c4Cl)c(N)n3)CC2)C1N
< 10 nM: IC50 [1] | IC50 [2] | IC50 [3] | IC50 [4] | IC50 [5]
inactive: viability, T/C [6] 14.3% | viability, T/C [7] 14.6% | viability, T/C [8] 12.2% | viability, T/C [9] 12.4% | viability, T/C [10] 13.6% | viability, T/C [11] 16.8% | viability, T/C [12] 14.6% | viability, T/C [13] 11.3% | viability, T/C [14] 10.6% | viability, T/C [15] 10.7% | viability, T/C [16] 12.2% | viability, T/C [17] 13.9% | viability, T/C [18] 16.9% | viability, T/C [19] 17.1% | viability, T/C [20] 13.4% | viability, T/C [21] 13.9% | viability, T/C [22] 14.2% | viability, T/C [23] 22.1% | viability, T/C [24] 13.1% | viability, T/C [25] 11.6% | viability, T/C [26] 10.9% | viability, T/C [27] 10.4% | viability, T/C [28] 13.2% | viability, T/C [29] 13.8% | viability, T/C [30] 13.7% | viability, T/C [31] 11.8% | viability, T/C [32] 11.8% | viability, T/C [33] 11% | viability, T/C [34] 13.4% | viability, T/C [35] 13.7%

COC(=O)c1ccc2c(C(=Nc3ccc(N(C)C(=O)CN4CCN(C)CC4)cc3)c3ccccc3)c(O)[nH]c2c1 + CC1OCC2(CCN(c3cnc(Sc4ccnc(N)c4Cl)c(N)n3)CC2)C1N
241 nM: IC50 [2]
105 nM: IC50 [4] | IC50 [5]
< 31.6 nM: IC50 [3]
217 nM: IC50 [1]
inactive: viability, T/C [7] 71.4% | viability, T/C [8] 57.7% | viability, T/C [9] 48.3% | viability, T/C [10] 24.8% | viability, T/C [11] 12.3% | viability, T/C [13] 76.8% | viability, T/C [14] 63.1% | viability, T/C [15] 46.1% | viability, T/C [16] 26.6% | viability, T/C [17] 9.27% | viability, T/C [19] 48% | viability, T/C [20] 44.3% | viability, T/C [21] 37.6% | viability, T/C [22] 19.3% | viability, T/C [25] 60% | viability, T/C [26] 51.8% | viability, T/C [27] 34.5% | viability, T/C [28] 17.9% | viability, T/C [31] 58.2% | viability, T/C [32] 50.3% | viability, T/C [33] 34.6% | viability, T/C [34] 17.4%
active: viability, T/C [36] 0.41% | viability, T/C [37] 0.34% | viability, T/C [23] 10% | viability, T/C [38] 0.37% | viability, T/C [29] 9.11% | viability, T/C [39] 0.37% | viability, T/C [35] 1.12% | viability, T/C (second compound 10 µM, first compound 10 µM) 0.57%

CN(C)C/C=C/C(=O)Nc1cc2c(Nc3ccc(F)c(Cl)c3)ncnc2cc1O[C@H]1CCOC1 + COc1cc2nc(C)nc(NC(C)c3cc(N)cc(C(F)(F)F)c3)c2cc1OC1CCOC1
> 100 nM: IC50 [1] | IC50 [2] | IC50 [3]
30.4 nM: IC50 [4]
inactive: viability, T/C (second compound 0.1 µM, first compound 0.000316 µM) 94% | viability, T/C (second compound 0.1 µM, first compound 0.001 µM) 91.5% | viability, T/C (second compound 0.1 µM, first compound 0.00316 µM) 84.8% | viability, T/C [6] 88.7% | viability, T/C [7] 85.4% | viability, T/C [8] 74.5% | viability, T/C (second compound 0.316 µM, first compound 0.000316 µM) 87.5% | viability, T/C (second compound 0.316 µM, first compound 0.001 µM) 74.7% | viability, T/C (second compound 0.316 µM, first compound 0.00316 µM) 72.7% | viability, T/C [12] 73.5% | viability, T/C [13] 66.1% | viability, T/C [14] 58.1% | viability, T/C (second compound 1 µM, first compound 0.000316 µM) 87% | viability, T/C (second compound 1 µM, first compound 0.001 µM) 82.2% | viability, T/C (second compound 1 µM, first compound 0.00316 µM) 83.7% | viability, T/C [18] 86.8% | viability, T/C [19] 84.9% | viability, T/C [20] 75.2% | viability, T/C (second compound 3.16 µM, first compound 0.000316 µM) 62.8% | viability, T/C (second compound 3.16 µM, first compound 0.001 µM) 46.8% | viability, T/C (second compound 3.16 µM, first compound 0.00316 µM) 57% | viability, T/C [24] 54.9% | viability, T/C [25] 52.5% | viability, T/C [26] 44.5% | viability, T/C (second compound 10 µM, first compound 0.000316 µM) 50% | viability, T/C (second compound 10 µM, first compound 0.001 µM) 52.2% | viability, T/C (second compound 10 µM, first compound 0.00316 µM) 50.7% | viability, T/C [30] 45.5% | viability, T/C [31] 45.6% | viability, T/C [32] 47.8%
1.18 nM: IC50 [5]

O=C(c1cc(Cc2n[nH]c(=O)c3ccccc23)ccc1F)N1CCN(C(=O)C2CC2)CC1
inactive: viability, T/C (compound 0.0316 µM) 96.3% [middle of 5 runs] | viability, T/C (compound 10 µM) 46% [middle of 5 runs]
8.55 µM [middle of 5 runs]: IC50 (curve of compound)

CC1OCC2(CCN(c3cnc(Sc4ccnc(N)c4Cl)c(N)n3)CC2)C1N (stereo not drawn) + C=CC(=O)N1CCN(c2nc(OCC3CCCN3C)nc3c2CCN(c2cccc4cccc(C)c24)C3)CC1CC#N
227 nM: IC50 [1]
384 nM: IC50 (curve of first compound, second compound 0.0316 µM)
94.6 nM: IC50 [2]
inactive: viability, T/C (second compound 0.0316 µM, first compound 0.0316 µM) 92.1% | viability, T/C (second compound 0.0316 µM, first compound 0.1 µM) 68% | viability, T/C (second compound 0.0316 µM, first compound 0.316 µM) 48.8% | viability, T/C (second compound 0.0316 µM, first compound 1 µM) 45.6% | viability, T/C (second compound 0.0316 µM, first compound 3.16 µM) 32.9% | viability, T/C (second compound 0.0316 µM, first compound 10 µM) 28.4% | viability, T/C [7] 82.9% | viability, T/C [8] 61.2% | viability, T/C [9] 43.8% | viability, T/C [10] 36.9% | viability, T/C [11] 37.6% | viability, T/C [36] 26.8% | viability, T/C [13] 66.1% | viability, T/C [14] 47.8% | viability, T/C [15] 37.4% | viability, T/C [16] 37.3% | viability, T/C [17] 27.5% | viability, T/C [37] 25.3% | viability, T/C [19] 20.5% | viability, T/C [20] 18.6% | viability, T/C [21] 16.4% | viability, T/C [22] 17.4% | viability, T/C [23] 16.1% | viability, T/C [38] 15.8%
active: viability, T/C [25] 0.11% | viability, T/C [26] 0.11% | viability, T/C [27] 0.11% | viability, T/C [28] 0.1% | viability, T/C [29] 0.11% | viability, T/C [39] 0.17%
< 31.6 nM: IC50 [3] | IC50 [4]
